Measured values taken from patent US10633397B2, “Substituted polycyclic pyridone derivatives and prodrugs thereof” (priority 2015, dated 2020).

Tests used:
[1] = Plasma concentration after oral administration of prodrug Compound II-6; assay type: in vivo; conditions: after oral administration of Compound II-6 to rat under non-fasting conditions, all plasma samples
Text: FIG. 1 is a result of measuring the plasma concentration of compound III-2, after oral administration of prodrug Compound II-6, the parent compound of which is Compound III-2, to rat under non-fasting conditions.
FIG. 2 is a result of measuring the plasma concentration of compound II-6, after oral administration of prodrug Compound II-6, the parent compound of which is Compound III-2, to rat under non-fasting conditions.
FIGS. 1 and 2 show a result of measuring the plasma concentration of Compound III-2 and Compound II-6 after oral administration of prodrug Compound II-6, the parent compound of which is Compound III-2, to rat under non-fasting conditions.
Therefore, prodrug Compound II-6, the parent compound of which is Compound III-2 is found to have changed promptly to Compound III-2 in vivo after administration (see FIG. 2).

in vivo = conditions: oral vs intravenous administration, mice or SD rats, read-out: bioavailability (BA)
Experimental: Materials and Methods for Experiments to Evaluate Oral Absorption
(1) Experimental animals: mice or SD rats were used.
(2) Rearing condition: mice or SD rats were allowed free access to solid feed and sterilized tap water.
(3) Setting of dosage and grouping: Oral administration and intravenous administration were performed with the predetermined dosage. Grouping was set as below. (Dosage was changed per compound)
Oral administration 1 to 30 mg/kg (n=2 to 3)
Intravenous administration 0.5 to 10 mg/kg (n=2 to 3)
(4) Preparation of administration solutions: Oral administration was performed as solution or suspension. Intravenous administration was performed after solubilization.
(5) Routes of administration: Oral administration was performed mandatory into the stomach by oral sonde. […]
(6) Evaluation items: Blood was collected serially and concentration of a compound of the present invention in plasma was measured by LC/MS/MS.
(7) Statistical analysis: About transition of concentration of a compound of the present invention in plasma, the area under the plasma concentration versus time curve (AUC) was calculated by non-linear least-squares method program, WinNonlin (a registered trademark), and bioavailability (BA) of a compound of the present invention was calculated from AUCs of the oral administration group and the intravenous administration group. […]

**Q.** What does the source list for `COC(=O)OCOc1c2n(ccc1=O)N([C@@H]1c3ccccc3SCc3c1ccc(F)c3F)[C@@H]1COCCN1C2=O` [II-6]?
**A.** concentration of Compound II-6 in plasma [1]: a determination limit or less; bioavailability (in vivo): 14.9%
